Patent US12630551B2, “Endocyclic pyrimidinone compounds, and preparation methods, compositions and use thereof” (NEUSCO BIOTECH LIMITED, priority 2020, dated 2026)

How the values were obtained:
[1] = target: T1, recombinant human Lp-PLA2 enzyme (Homo sapiens, UniProt Q13093); assay: Recombinant human Lp-PLA2 (rhLp-PLA2) assay (PED6 assay); type: biochemical; details: PED6 substrate, enzyme 4 nM or 110 pM, 30-min pre-incubation, fluorescence ex 480/em 540; for IC50: read-out: rhLp-PLA2 (pIC50) (converted)
T1 sequence (Q13093 22-441): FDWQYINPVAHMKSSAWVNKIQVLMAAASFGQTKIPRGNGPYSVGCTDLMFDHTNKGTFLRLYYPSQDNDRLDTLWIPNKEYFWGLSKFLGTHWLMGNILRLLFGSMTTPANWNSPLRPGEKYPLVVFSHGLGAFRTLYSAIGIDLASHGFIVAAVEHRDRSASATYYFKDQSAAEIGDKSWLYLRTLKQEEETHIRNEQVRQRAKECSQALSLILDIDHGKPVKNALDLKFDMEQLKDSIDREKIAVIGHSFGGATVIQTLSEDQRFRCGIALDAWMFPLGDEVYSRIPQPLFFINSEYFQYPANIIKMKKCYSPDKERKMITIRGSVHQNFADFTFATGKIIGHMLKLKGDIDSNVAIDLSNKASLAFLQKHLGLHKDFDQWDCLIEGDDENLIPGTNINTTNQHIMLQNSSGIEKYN
Description: (1) Recombinant Human Lp-PLA2 (rhLp-PLA2) Assay (Also Known as PED6 Assay) PED6 is a fluorescently labeled phospholipid, which could be purchased directly from Invitogene or Molecular Probes. PED6 has a fluorescence quenching […] and a Bodipy fluorescein (FL) group at the sn2 position. Once cleaved by an Lp-PLA2 enzyme, it will release the FL group, resulting in enhanced fluorescence. […] The plate was centrifuged at 500 rpm for 10 seconds.

[2] = target: T2, Lp-PLA2 enzyme in human plasma (Homo sapiens, UniProt Q13093); assay: Human plasma Lp-PLA2 assay (Thio-PAF assay); type: biochemical; details: mixed human plasma, 2-thio-PAF substrate, CPM, 30-min pre-incubation, fluorescence ex 380/em 485; for IC50: read-out: Thio-PAF (pIC50) (converted)
T2 construct: from tissue; host or cells: mixed (pooled) human plasma
T2 sequence (Q13093 22-441): T1 sequence (Q13093 22-441)
Description: (2) Human Plasma Lp-PLA2 Assay (Also Known as Thio-PAF Assay) The human plasma assay was conducted using the […] analog of PAF (phosphatidylcholine). After hydrolysis, it would generate phospholipids containing free sulfhydryl groups, which would be subjected to Michael addition with CPM to generate fluorescence-enhancing maleimide. Continuous quantitative analysis of thiol could be conducted by detecting the fluorescence intensity. This assay can be used to detect the inhibitory activity of the Lp-PLA2 inhibitor on the Lp-PLA2 enzyme in human plasma. […] The plate was centrifuged at 500 rpm for 10 seconds. […] Two minutes later, the reaction was quenched with 5 μl of 5% trifluoroacetic acid.

For `O=c1nc(OCc2ccc(F)cc2F)cc2n1CC1CCCN2C1` (stereo not shown) [Compound 2], the IC50 [1] was 2.51 nM and the IC50 [2] was 31.6 nM.

For `O=c1nc(OCc2cc(F)c(F)cc2F)cc2n1CC1CCCN2C1` (stereo not shown) [Compound 3], the IC50 [1] was 31.6 nM and the IC50 [2] was 316 nM.

`O=c1nc(OCc2cc(F)cc(F)c2)cc2n1CC1CCCN2C1` (stereo not shown) [Compound 4] gave an IC50 [1] of 3.16 nM and an IC50 [2] of 39.8 nM.

For `O=c1nc(OCc2cc(F)c(Oc3ccnc(C(F)(F)F)c3)c(F)c2)cc2n1CC1CCCN2C1` (stereo not shown) [Compound 5], the IC50 [1] was 0.0316 nM and the IC50 [2] was 3.16 nM.

Compound `Cc1cc(Oc2c(F)cc(COc3cc4n(c(=O)n3)CC3CCCN4C3)cc2F)ccn1` (stereo not shown) [Compound 6] has an IC50 [1] of 0.0631 nM and an IC50 [2] of 6.31 nM.

In the case of `Cc1ccc(Oc2c(F)cc(COc3cc4n(c(=O)n3)CC3CCCN4C3)cc2F)cn1` (stereo not shown) [Compound 7], the IC50 [1] is reported as 0.0794 nM and the IC50 [2] is reported as 7.94 nM.

Work on `Cc1ncc(Oc2c(F)cc(COc3cc4n(c(=O)n3)CC3CCCN4C3)cc2F)cn1` (stereo not shown) [Compound 8] yielded an IC50 [1] of 0.316 nM and an IC50 [2] of 15.8 nM.

Compound `O=c1nc(OCc2cc(F)c(Oc3cnc(C(F)(F)F)nc3)c(F)c2)cc2n1CC1CCCN2C1` (stereo not shown) [Compound 9] has an IC50 [1] of 0.1 nM and an IC50 [2] of 10 nM.

Work on `O=c1nc(OCc2cc(F)c(Oc3cccc(C(F)(F)F)c3)c(F)c2)cc2n1CC1CCCN2C1` (stereo not shown) [Compound 10] yielded an IC50 [1] of 0.126 nM and an IC50 [2] of 10 nM.

For `Cc1cc(Oc2c(F)cc(COc3cc4n(c(=O)n3)CC3CCCN4C3)cc2F)ccc1Cl` (stereo not shown) [Compound 11], the IC50 [1] was 0.0794 nM and the IC50 [2] was 7.94 nM.

In the case of `O=c1nc(OCc2cc(F)c(Oc3cccc(OC(F)(F)F)c3)c(F)c2)cc2n1CC1CCCN2C1` (stereo not shown) [Compound 12], the IC50 [1] is reported as 0.316 nM and the IC50 [2] is reported as 15.8 nM.

Work on `O=c1nc(OCc2cc(F)c(Oc3ccc(C(F)(F)F)cc3)c(F)c2)cc2n1CC1CCCN2C1` (stereo not shown) [Compound 13] yielded an IC50 [1] of 0.0631 nM and an IC50 [2] of 7.94 nM.

`O=c1nc(OCc2cc(F)c(Oc3ccc(Cl)c(C(F)(F)F)c3)c(F)c2)cc2n1CC1CCCN2C1` (stereo not shown) [Compound 14] was tested, and the IC50 [1] was 0.0398 nM and the IC50 [2] was 6.31 nM.

`O=c1nc(OCc2cc(F)c(Oc3ccc(OC(F)(F)F)c(Cl)c3)c(F)c2)cc2n1CC1CCCN2C1` (stereo not shown) [Compound 15] was tested, and the IC50 [1] was 0.2 nM and the IC50 [2] was 12.6 nM.

Compound `O=c1nc(OCc2cc(F)c(Oc3ccc(C(F)(F)F)c(Cl)c3)c(F)c2)cc2n1CC1CCCN2C1` (stereo not shown) [Compound 16] has an IC50 [1] of 0.0794 nM and an IC50 [2] of 7.94 nM.

Work on `Cc1ccc(Oc2c(F)cc(COc3cc4n(c(=O)n3)C[C@H]3CCCN4C3)cc2F)cn1` [Compound 18] yielded an IC50 [1] of 0.0794 nM and an IC50 [2] of 7.94 nM.

`O=c1nc(OCc2cc(F)c(Oc3cccc(C(F)(F)F)c3)c(F)c2)cc2n1C[C@H]1CCCN2C1` [Compound 20] showed an IC50 [1] of 0.0316 nM and an IC50 [2] of 3.16 nM.

`O=c1nc(OCc2cc(F)cc(F)c2)cc2n1C[C@H]1CCCN2C1` [Compound 21] was tested, and the IC50 [1] was 3.16 nM and the IC50 [2] was 39.8 nM.

`O=c1nc(OCc2cc(F)c(F)cc2F)cc2n1C[C@H]1CCCN2C1` [Compound 22] showed an IC50 [1] of 31.6 nM and an IC50 [2] of 316 nM.

In the case of `Cc1ccc(Oc2c(F)cc(COc3cc4n(c(=O)n3)C[C@@H]3CCCN4C3)cc2F)cn1` [Compound 24], the IC50 [1] is reported as 0.1 nM and the IC50 [2] is reported as 7.94 nM.

`O=c1nc(OCc2cc(F)c(Oc3cccc(C(F)(F)F)c3)c(F)c2)cc2n1C[C@@H]1CCCN2C1` [Compound 26] gave an IC50 [1] of 0.0398 nM and an IC50 [2] of 3.98 nM.

In the case of `O=c1nc(OCc2cc(F)cc(F)c2)cc2n1C[C@H]1CCCN2C1` [Compound 27], the “rhLp-PLA2 (pIC50)” value [1] is reported as 8.5 and the IC50 [2] is reported as 50.1 nM.

With `O=c1nc(OCc2cc(F)c(F)cc2F)cc2n1C[C@H]1CCCN2C1` [Compound 28] the IC50 [1] was 39.8 nM and the “Thio-PAF (pIC50)” value [2] was 6.5.

`Cc1ccc(Oc2c(F)cc(COc3cc4n(c(=O)n3)C[C@@H]3CN4CCO3)cc2F)cn1` [Compound 30] was tested, and the IC50 [1] was 0.158 nM and the IC50 [2] was 10 nM.

For `O=c1nc(OCc2cc(F)cc(F)c2)cc2n1C[C@@H]1CN2CCO1` [Compound 33], the IC50 [1] was 3.98 nM and the IC50 [2] was 79.4 nM.

With `O=c1nc(OCc2cc(F)c(F)cc2F)cc2n1C[C@@H]1CN2CCO1` [Compound 34] the IC50 [1] was 63.1 nM and the IC50 [2] was 501 nM.

In the case of `Cc1ccc(Oc2c(F)cc(COc3cc4n(c(=O)n3)C[C@H]3CN4CCO3)cc2F)cn1` [Compound 36], the IC50 [1] is reported as 0.126 nM and the IC50 [2] is reported as 12.6 nM.

For `O=c1nc(OCc2cc(F)cc(F)c2)cc2n1C[C@@H]1CN2CCO1` [Compound 39], the “rhLp-PLA2 (pIC50)” value [1] was 8.4 and the IC50 [2] was 100 nM.

For `O=c1nc(OCc2cc(F)c(F)cc2F)cc2n1C[C@@H]1CN2CCO1` [Compound 40], the IC50 [1] was 50.1 nM and the “Thio-PAF (pIC50)” value [2] was 6.3.
